Laboratory results reported in patent US20070254895A1, “Crystalline solvate of glucokinase activator” (priority 2006, published 2007).
Where “and” joins values, the source holds several entries; their conditions need not be identical. Identical values can stand only once.

Experiment: Stability samples of IPA solvate analyzed for IPA content and heat of fusion
Assay type: physicochemical
Description: Differential scanning calorimetry was performed using Perkin Elmer DSC-7 and Diamond DSC, using sealed aluminum pan with a hole in the lid. Sample was heated at a rate of 10° C./min.
The stability sample obtained at various time points and conditions were analyzed for the IPA level and heat of fusion (Table 6). These two variables were plotted against each other to see the correlation (FIG. 17).
Sample was stored in a double PE bag with either metal drum or fiber drum as the container.

[1] = 40° C./75% RH/Fiber drum, double PE bag, 1 month

Row | SMILES | IPA (% w/w) (25° C./60% RH/Metal, 3 months) | ΔH (J/g) heat of fusion (25° C./60% RH/Metal, 3 months) [J/g] | IPA (% w/w) (25° C./60% RH/Metal, 6 months) | ΔH (J/g) heat of fusion (25° C./60% RH/Metal, 6 months) [J/g] | IPA (% w/w) (40° C./75% RH/Metal, 1 month) | ΔH (J/g) heat of fusion (40° C./75% RH/Metal, 1 month) | IPA (% w/w) (40° C./75% RH/Metal, 3 months) | ΔH (J/g) heat of fusion (40° C./75% RH/Metal, 3 months) | IPA (% w/w) (40° C./75% RH/Metal, 6 months) | ΔH (J/g) heat of fusion (40° C./75% RH/Metal, 6 months) | IPA (% w/w) (50° C./Metal, 1 month) | ΔH (J/g) heat of fusion (50° C./Metal, 1 month) | also measured
1 | CC(C)O.CS(=O)(=O)c1ccc([C@@H](C[C@H]2CCC(=O)C2)C(=O)Nc2cnccn2)cc1Cl [Lot 3] | 12 | 104.847 | 12 | 102.406 | 11.6 | 105.006 J/g and 102.972 J/g | 11.3 | 103.326 J/g and 103.52 J/g | 8.4 | 65.867 J/g and 67.851 J/g and 61.796 J/g | 12 | 100.639 J/g | IPA (% w/w) (5° C./Metal, 3 months): 12.1 % w/w; ΔH (J/g) heat of fusion (5° C./Metal, 3 months): 107.801 J/g; IPA (% w/w) (5° C./Metal, 6 months): 12.1 % w/w; ΔH (J/g) heat of fusion (5° C./Metal, 6 months): 106.157 J/g
2 | CC(C)O.CS(=O)(=O)c1ccc([C@@H](C[C@H]2CCC(=O)C2)C(=O)Nc2cnccn2)cc1Cl [Lot 1] | 12 | 102.665 | 11.9 | 101.346 | 11.1 | 89.35 J/g | 7.3 | 53.712 J/g and 51.302 J/g and 47.200 J/g | 5 | 32.201 J/g and 29.011 J/g and 26.128 J/g | 12 | 102.033 J/g and 99.554 J/g | IPA (% w/w) (5° C./Fiber, 6 months): 12.2 % w/w; ΔH (J/g) heat of fusion (5° C./Fiber, 6 months): 104.917 J/g; IPA (% w/w) (25° C./60% RH/Fiber, 3 months): 12 % w/w; ΔH (J/g) heat of fusion (25° C./60% RH/Fiber, 3 months): 99.861 J/g; IPA (% w/w) (25° C./60% RH/Fiber, 6 months): 12 % w/w; ΔH (J/g) heat of fusion (25° C./60% RH/Fiber, 6 months): 98.112 J/g; IPA (% w/w) (30° C./60% RH/Fiber, 10 months): 11.2 % w/w; ΔH (J/g) heat of fusion (30° C./60% RH/Fiber, 10 months): 87.929 J/g; IPA (% w/w) (30° C./60% RH/Metal, 10 months): 11.5 % w/w; ΔH (J/g) heat of fusion (30° C./60% RH/Metal, 10 months): 99.538 J/g; IPA (% w/w) [1]: 8.9 % w/w; ΔH (J/g) heat of fusion [1]: 65.084 J/g; IPA (% w/w) (40° C./75% RH/Fiber, 3 months): 4.4 % w/w; ΔH (J/g) heat of fusion (40° C./75% RH/Fiber, 3 months): 28.733 J/g and 29.404 J/g and 26.416 J/g and 24.713 J/g; IPA (% w/w) (40° C./75% RH/Fiber, 6 months): 4 % w/w; ΔH (J/g) heat of fusion (40° C./75% RH/Fiber, 6 months): 26.529 J/g; IPA (% w/w) (50° C./Fiber, 1 month): 11.8 % w/w; ΔH (J/g) heat of fusion (50° C./Fiber, 1 month): 105.445 J/g
